Test results reported in a melting point compilation (Tetko et al.; mined from patent text by program, amines drawn as free bases though some values may be those of a salt).

Row | SMILES | melting point [°C]
1 | CCCCCCCCCCCC(CCCCC(=O)N(c1ccccc1)c1ccccc1)OC (stereo not given) | 51 to 52
2 | O=C(CCN1CCCCC1)Nc1ccc2c(c1)C(=O)c1cc(NC(=O)CCN3CCCCC3)ccc1C2=O | 240
3 | COC(=O)c1ccc(OCCCc2ccccc2)cc1O | 101 to 102
4 | Nc1c(Cl)cc(CC(=O)c2ccccc2)c2c1OCCO2 | 133 to 135
5 | CCOC(=O)c1nc(NC)sc1C(=O)CBr | 130 to 132
6 | CN(C)CC1CCc2cc(OCc3ccc(NC(=O)c4ccccc4)cc3)ccc2C1 (stereo not given) | 128 to 133
7 | Cc1c(F)c(N2CCC(C)(CN)C2)cc2c1c(=O)c(C(=O)O)cn2C1CC1 (stereo not given) | 250 to 252
8 | CC(C)=C1C(=O)N(c2ccc(N)cc2)C(=O)/C1=C(\C)c1cc(-c2ccccc2)sc1C | 193 to 195
9 | CCC12CCC3c4ccc(OC)cc4CCC3C1C=CC2=O (stereo not given) | 158 to 160
10 | COc1cc(C(=O)N2CCC(C(=O)C3CCCCC3)CC2)c([N+](=O)[O-])cc1OC | 120 to 125
11 | CCCn1cc(-c2nc(C#N)c(N)nc2-c2ccccc2)ccc1=O | 180 to 183
12 | COc1ccccc1C1(O)CCN(C2CCN(C(=O)c3cc(C)cc(C)c3)C(Cc3ccccc3)C2)CC1 (stereo not given) | 213
13 | COc1ccc(C2CCN(c3c(C)c(C)c4c(c3C)C(Nc3ccccc3)C(C)(C)O4)CC2)cc1OC (stereo not given) | 138 to 140
14 | CC(=O)Nc1ccc(-c2nc3ccccc3s2)cc1 | 227 to 229
15 | CCC(CC)(CC(=O)Nc1cccc(OCc2ccc3cccc(F)c3n2)c1)C(=O)O | 128 to 129
16 | C#CCN1C(=O)c2cccc3cccc1c23 | 183 to 186
17 | CC(C)(C)OC(=O)N1CCC(CCC(=O)N2CCC[C@@H](C(=O)O)C2)CC1 | 102 to 104
18 | CCCCCCCCCCCCSCC(CO)NC(=O)CCCCCCCCCC (stereo not given) | 64 to 67
19 | CSc1cccc(-c2nc(=O)c3ccccc3s2)n1 | 207 to 208
20 | Cc1ccccc1CC1CNC(=O)O1 (stereo not given) | 121 to 122
21 | Nc1sc2c(c1C(=O)c1ccc(Cl)c3ccccc13)CCC2 | 258 to 260
22 | CC(O)=C(C#N)C(=O)Nc1cccc(Cl)c1 | 184 to 187
23 | CSc1noc(-c2ccc(OCCCc3ccccc3)cc2)c1C#N | 99 to 100
24 | CC(=O)Nc1ccc(OCCOCCO)cc1 | 94
25 | O=c1cc(CBr)n(Cc2ccccc2)cc1OCCC12CC3CC(CC(C3)C1)C2 | 200 to 203

Row | SMILES | melting point [°C]
26 | COC(=O)C1=C(C(OC)OC)NC(C)=C(P2(=O)OCCCO2)C1c1ccccc1[N+](=O)[O-] (stereo not given) | 174 to 176
27 | CC(C)CC=CC(C)C1CCC2C3=CC=C4CC(O)CCC4(C)C3CCC21C (stereo not given) | 120 to 122
28 | CC1(C)C(=O)Nc2cc3[nH]c(C4CC4)nc3cc21 | 266 to 268
29 | COC(=O)c1c(-c2ccc(Cl)cc2)ccnc1Sc1nc(OC)cc(OC)n1 | 138 to 142
30 | CCOC(=O)c1cc2c(C)cccc2n1CCNS(=O)(=O)c1ccc(C)cc1 | 92 to 93
31 | Cc1ccc(OC2=C(Oc3ccc(C)cc3)C(F)(F)C(F)(F)C2(F)F)cc1 | 46 to 48
32 | CCOC(=O)c1cnc2ccc(C)cc2c1O | > 260
33 | CCC1CC(=O)N(Cc2ccc(NC(=O)C(C)C)cc2)N=C1c1ccc(OC)c(OC)c1 (stereo not given) | 144
34 | Cc1c(C2CCCC2)c(=O)oc2cc(OCc3nnn[nH]3)cc(OCc3nnn[nH]3)c12 | 248 to 252
35 | COC(=O)C1Cc2c([nH]c3ccccc23)CN1C(=S)SC (stereo not given) | 132 to 134
36 | CC(O)c1cc(F)ccc1Oc1nc2ccc(-n3cc(-c4ccccc4)nn3)cc2cc1Cc1ccccc1 (stereo not given) | 103
37 | CCCCc1ccc(-c2ccc(CCc3ccc(C)cc3)cc2)c(F)c1 | 41
38 | CS(=O)(=O)c1ccc(-c2oc3ccc(F)cc3c(=O)c2-c2cccnc2)cc1 | 177 to 178
39 | Cc1ccc2cc(NS(=O)(=O)c3cccc(Cl)c3C)ccc2n1 | 178
40 | O=c1[nH]c2ccccc2c2c1CNCC2 | 292 to 295
41 | O=c1cc(S)oc2ccccc12 | 207 to 208
42 | COc1c2c(c(OC)c(OC)c1OC)CCC(CCO)CC2 | 64 to 66
43 | CN(C)C(=O)c1ccncc1-c1nc(-c2ccc(Cl)cc2)cs1 | 195
44 | Cc1cccc(C(=O)Nc2ccc(N3CCN(Cc4ccccc4)CC3)nc2)c1-c1ccc(C(C)C)cc1 | 138 to 140
45 | Cc1cc(SC(C)C)c(NC(=O)CCCCCSc2nc3ccccc3s2)c(SC(C)C)n1 | 84 to 86
46 | O=C(CCCC1(c2ccccc2)CC(O)=C(SCc2ccccc2)C(=O)O1)NCc1ccccc1 (stereo not given) | 48 to 52
47 | O=C1CCC(N2Cc3c(CNC(=O)c4ccccn4)cccc3C2=O)C(=O)N1 (stereo not given) | 254 to 256
48 | O=C1NCCN1c1ccc(S(=O)(=O)Nc2ccc(C3CCCCC3)cc2)cc1 | 256 to 257
49 | CC(=O)Oc1ccc(Cn2ccnc2SC(C)=O)cc1F | 78 to 80
50 | COc1cc(Oc2cc(C(F)(F)F)nn2C)nc(Oc2cc(C(F)(F)F)nn2C)c1 | 107

Row | SMILES | melting point [°C]
51 | CCC(Oc1ccc(Cl)c(C)c1)C(=O)NCc1ccccc1 (stereo not given) | 95 to 97
52 | OC(CCCN1CC=C(c2ccc(Cl)cc2)CC1)c1ccc(F)cc1 (stereo not given) | 103 to 105
53 | CC1(C)CC(OC(=O)c2ccccc2)CC(C)(C)N1CC#N | 147
54 | CSc1nc(-c2ccc(Cl)cc2)c(CCC(=O)O)o1 | 183 to 184
55 | Cc1nc2ccc(NC(=O)CC34CC5CC(CC(C5)C3)C4)cc2s1 | 172
56 | Cn1c(CO)nc2c(N)cc(Br)cc21 | 216 to 218
57 | C=CCOc1ccc(CC(=O)NCCCC)cc1 | 87 to 89
58 | OCC1CNc2ncccc2O1 (stereo not given) | 123 to 124
59 | CC1(C)Cc2nc(C3CCCC3)c(C(F)c3ccc(C(F)(F)F)cc3)c(-c3ccc(F)c(F)c3)c2C(O)C1 (stereo not given) | 149 to 150
60 | CCn1ncc(C(=O)c2ccc(S(C)(=O)=O)c(OCCOC)c2Cl)c1O | 159 to 160
61 | C=CCOc1ccc(CC(=O)NCC(=O)O)cc1Cl | 115 to 119
62 | CS(=O)(=O)OC1CC(n2ccc(=O)[nH]c2=O)OC1COC(c1ccccc1)(c1ccccc1)c1ccccc1 (stereo not given) | 106 to 108
63 | Cn1c(=O)cc(-c2cccc(O)c2)c2cccnc21 | 260 to 261
64 | CC(C)(C)c1cc(C(=O)c2cccs2)cc(CN2CCCCC2)c1O | 132 to 133
65 | NC(=O)OCc1cc2c(Oc3ccc(Cl)cc3)cncc2s1 | 113 to 115
66 | Cc1c(NC(=O)c2ccc(-c3ccccc3)cc2F)ccc2cc(CN3CCCC3)cnc12 | 166 to 168
67 | CC(=O)OC[C@H]1O[C@@H](c2nc(C(N)=O)c(N)[nH]2)[C@H](OC(C)=O)[C@@H]1OC(C)=O | 128 to 129
68 | OC1(Cc2ccccc2F)CCCCCC1 | 35 to 38
69 | O=C(Cn1ccnc1)CS(=O)(=O)c1ccccc1 | 137 to 140
70 | CCN1C(=O)C2C3C=CC(CC3)C2(c2ccc(Cl)c(Cl)c2)C1=O (stereo not given) | 122 to 126
71 | Cc1ccc2onc(-c3ccc(Cl)cc3)c2c1 | 95
72 | CCOC(=O)C1C=Nc2c(cc(F)cc2[N+](=O)[O-])C1=O (stereo not given) | 278 to 280
73 | COc1cc(CO)c(OC)c2ccccc12 | 63 to 66
74 | Clc1nc(-c2nc3ccccc3[nH]2)[nH]c1Cl | 300
75 | Cc1ccc(Oc2ccc3c4c(cccc24)C2=NC(=O)C(C#N)=C23)cc1 | 232 to 233

Row | SMILES | melting point [°C]
76 | Cn1ncnc1-c1cc(S(C)(=O)=O)c2[nH]c(=O)ccc2c1 | 226 to 232
77 | O=C1N(Cc2sc(C(F)(F)F)cc2O)c2ccccc2C12COc1cc3c(cc12)OCO3 (stereo not given) | 225 to 227
78 | CCCCn1c(C)cc(=O)c(C(=O)Nc2ccccc2)c1-c1ccccc1 | 190 to 193
79 | O=NN(CC(=O)O)C([PH](=O)Oc1ccccc1)[PH](=O)Oc1ccccc1 (stereo not given) | 40 to 44
80 | COc1ccccc1NC(=O)Nc1nc(Nc2ccccc2C(=O)O)nc(Nc2ccccc2-c2ccccc2)n1 | 228
81 | N#Cc1c(N2CCCCC2)cc(-c2ccc3ccccc3c2)c2c1-c1ccccc1C2 | 136 to 138
82 | COc1cc2cc(C3=NNC(=O)CC3C)sc2cc1OC (stereo not given) | 204 to 206
83 | O=C(O)CN1C(=O)C(=Cc2cc(Cl)ccc2O)SC1=S | 243 to 247
84 | CCCCC(=O)Nc1c(C)c(C)c2c(c1C)C(c1ccc(C(C)C)cc1)C(C)(C)O2 (stereo not given) | 106 to 107
85 | O=C(O)c1cn(-c2ccc(OC(F)(F)F)c(Cl)c2)cn1 | 230 to 231
86 | CC(=O)N1CC(Oc2c(C)cccc2C)C1 | 40 to 42.5
87 | O=CN(c1cc(Cl)cc(Cl)c1)c1cc(S(=O)(=O)NC(c2ccccc2)c2ccccc2)ccc1Cl | 196 to 198
88 | C=CCCC(O)=C(C#N)C(=O)Nc1ccc(C(F)(F)F)c(C)c1 | 133
89 | NC1CCN(C(=O)c2ccc(-c3[nH]nc4c3C(=O)c3c(NC(=O)NN5CCOCC5)cccc3-4)s2)C1 (stereo not given) | 201 to 202
90 | O=C1Nc2cccnc2N(C(=O)NCCN2CCC(CCCN3CCCCC3)CC2)c2ccccc21 | 192 to 193
91 | Fc1c(Cl)cccc1COc1cccnc1NC(=S)Nc1ccc(Cl)cc1 | 174 to 176
92 | N=C(O)c1cc(C(O)=Nc2ccc(O)cc2)c(C(=O)O)cc1C(=O)O | 300
93 | CC(=O)OC1CSC(Oc2cccnc2[N+](=O)[O-])C(OC(C)=O)C1OC(C)=O (stereo not given) | 178
94 | Cn1cncc1C(O)(c1ccc(Cl)cc1)c1ccc2nc(NN)nc(-c3cccc(Cl)c3)c2c1 (stereo not given) | 186
95 | Cc1nnc(OCC(F)(F)F)c(-c2c(F)cc(F)cc2F)c1-c1ccc(Cl)cc1 | 105 to 108
96 | O=C(NCc1cccc(-c2nc(=O)c3ccccc3s2)n1)C(F)(F)F | 226 to 227
97 | O=C1Cc2cccc3c2N1C(C(F)(F)F)=C(F)S3 | 128 to 130
98 | CC(=O)n1ccn(C(C)=O)c1=O | 106
99 | O=C(NCCN1CCC(n2c(=O)[nH]c3ccccc32)CC1)c1ccco1 | 229
100 | CCCOC(=O)c1cccc(CCN(C)CCCC(C#N)(c2ccc(OC)c(OC)c2)C(C)C)c1 (stereo not given) | 110 to 114
